Reference: PubChem BioAssay (NCI)
“And” between values parts separate entries of the source, which are not always exact repeats. Equal values may be shown once.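 Growth conditions: 96-well plates. Treatment: test compound, 48 hours, 5 concentrations. Analysis: linear interpolation between bracketing concentrations; unreached endpoints set to highest concentration. GI50 marks 50% less growth. TGI: total growth inhibition.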

Columns and labels:
Test in all cases: NCI tumour cell line growth inhibition, 48 h
HCT-15 colon = system: HCT-15 colon
HL-60(TB) leukemia = system: HL-60(TB) leukemia
HOP-62 NSCLC = system: HOP-62 NSCLC
MOLT-4 leukemia = system: MOLT-4 leukemia
NCI-H23 lung = system: NCI-H23 lung
NCI-H460 lung = system: NCI-H460 lung
NCI/ADR-RES ovarian = system: NCI/ADR-RES ovarian
SK-MEL-28 melanoma = system: SK-MEL-28 melanoma
TK-10 renal = system: TK-10 renal
U251 CNS = system: U251 CNS

O=C1Oc2ccccc2C1C/C(=N\Nc1ccccc1)c1ccccc1O (stereo unspecified)
TGI (HCT-15 colon): > 100 µM
TGI (HL-60(TB) leukemia): > 100 µM
TGI (HOP-62 NSCLC): > 100 µM
TGI (MOLT-4 leukemia): 78.7 µM
TGI (NCI-H23 lung): 74 µM
TGI (NCI-H460 lung): > 100 µM
TGI (NCI/ADR-RES ovarian): 70.9 µM
TGI (SK-MEL-28 melanoma): > 100 µM
TGI (TK-10 renal): > 100 µM
TGI (U251 CNS): > 100 µM

Cc1c(C)c2c(c(N)c1C#N)C(=O)N(O)C2=O
TGI (HCT-15 colon): > 100 µM
TGI (HL-60(TB) leukemia): > 100 µM
TGI (MOLT-4 leukemia): > 100 µM
TGI (NCI-H23 lung): > 100 µM
TGI (NCI-H460 lung): > 100 µM
TGI (NCI/ADR-RES ovarian): > 100 µM
TGI (SK-MEL-28 melanoma): > 100 µM
TGI (TK-10 renal): > 100 µM
TGI (U251 CNS): > 100 µM

O=C(NCCN1CCCCC1)c1ccc(Br)cc1
TGI (HCT-15 colon): > 100 µM
TGI (HL-60(TB) leukemia): > 100 µM
TGI (HOP-62 NSCLC): > 100 µM
TGI (MOLT-4 leukemia): > 100 µM
TGI (NCI-H23 lung): > 100 µM
TGI (NCI-H460 lung): > 100 µM
TGI (NCI/ADR-RES ovarian): > 100 µM
TGI (SK-MEL-28 melanoma): > 100 µM
TGI (TK-10 renal): > 100 µM
TGI (U251 CNS): > 100 µM

CCOC(=O)c1c[nH]c(C(=O)OCC)c1-c1cccn1-c1ccccc1
TGI (HCT-15 colon): > 100 µM
TGI (HL-60(TB) leukemia): 54.4 µM
TGI (HOP-62 NSCLC): 50 µM
TGI (MOLT-4 leukemia): 53 µM
TGI (NCI-H23 lung): > 100 µM
TGI (NCI-H460 lung): 65.5 µM
TGI (NCI/ADR-RES ovarian): 76 µM
TGI (SK-MEL-28 melanoma): 79.5 µM
TGI (TK-10 renal): > 100 µM
TGI (U251 CNS): 48 µM

Nc1nc(NNc2cccc(F)c2)cc(=O)[nH]1
TGI (HCT-15 colon): > 100 µM
TGI (HL-60(TB) leukemia): 59.3 µM
TGI (HOP-62 NSCLC): 58.5 µM
TGI (MOLT-4 leukemia): > 100 µM
TGI (NCI-H23 lung): > 100 µM
TGI (NCI-H460 lung): > 100 µM
TGI (NCI/ADR-RES ovarian): > 100 µM
TGI (SK-MEL-28 melanoma): > 100 µM
TGI (TK-10 renal): > 100 µM
TGI (U251 CNS): 42.9 µM

O=C(O)c1nc2ccccc2nc1Nc1ccc(Cl)c(Cl)c1
TGI (HCT-15 colon): 36.1 µM
TGI (HL-60(TB) leukemia): > 100 µM
TGI (HOP-62 NSCLC): 58 µM
TGI (MOLT-4 leukemia): > 100 µM
TGI (NCI-H23 lung): 50.1 µM
TGI (NCI-H460 lung): 82.5 µM
TGI (NCI/ADR-RES ovarian): > 100 µM
TGI (SK-MEL-28 melanoma): 75 µM
TGI (TK-10 renal): > 100 µM
TGI (U251 CNS): > 100 µM

CC1(C)C2CCC3CC(CCC#N)CCC3C21C#N (stereo unspecified)
TGI (HCT-15 colon): > 100 µM
TGI (HL-60(TB) leukemia): > 100 µM
TGI (HOP-62 NSCLC): > 100 µM
TGI (MOLT-4 leukemia): > 100 µM
TGI (NCI-H23 lung): > 100 µM
TGI (NCI-H460 lung): > 100 µM
TGI (NCI/ADR-RES ovarian): > 100 µM
TGI (SK-MEL-28 melanoma): > 100 µM
TGI (TK-10 renal): > 100 µM
TGI (U251 CNS): > 100 µM

COc1nc(N=P(c2ccccc2)(c2ccccc2)c2ccccc2)cc(=O)n1C
TGI (HCT-15 colon): > 100 µM
TGI (HL-60(TB) leukemia): > 100 µM
TGI (HOP-62 NSCLC): > 100 µM
TGI (MOLT-4 leukemia): > 100 µM
TGI (NCI-H23 lung): > 100 µM
TGI (NCI-H460 lung): > 100 µM
TGI (NCI/ADR-RES ovarian): > 100 µM
TGI (SK-MEL-28 melanoma): > 100 µM
TGI (TK-10 renal): > 100 µM
TGI (U251 CNS): > 100 µM

CCCCOCCOCCOC1=CC(=O)c2c(O)ccc(O)c2C1=O
TGI (HL-60(TB) leukemia): 6 µM
TGI (HOP-62 NSCLC): 3.22 µM
TGI (MOLT-4 leukemia): 8.22 µM
TGI (NCI-H23 lung): 3.32 µM
TGI (NCI-H460 lung): 3.69 µM
TGI (NCI/ADR-RES ovarian): 5.14 µM
TGI (SK-MEL-28 melanoma): 2.95 µM
TGI (TK-10 renal): 5.28 µM
TGI (U251 CNS): 3.29 µM

CN(C)c1ccc(/C=C/C(=O)c2ccc(O)cc2)cc1
TGI (HCT-15 colon): 40.4 µM
TGI (HL-60(TB) leukemia): 5.57 µM
TGI (HOP-62 NSCLC): > 100 µM
TGI (MOLT-4 leukemia): 21 µM
TGI (NCI-H23 lung): > 100 µM
TGI (NCI-H460 lung): 22.8 µM
TGI (NCI/ADR-RES ovarian): > 40.6 µM
TGI (SK-MEL-28 melanoma): > 100 µM
TGI (TK-10 renal): > 100 µM
TGI (U251 CNS): > 42 µM

COC(=O)c1ccc2c(c1)CC1(C2)Cc2cc3c(cc2C1)CCC3
TGI (HCT-15 colon): > 100 µM
TGI (HL-60(TB) leukemia): > 100 µM
TGI (HOP-62 NSCLC): > 100 µM
TGI (MOLT-4 leukemia): > 100 µM
TGI (NCI-H23 lung): > 100 µM
TGI (NCI-H460 lung): > 100 µM
TGI (NCI/ADR-RES ovarian): > 100 µM
TGI (SK-MEL-28 melanoma): > 100 µM
TGI (TK-10 renal): > 100 µM
TGI (U251 CNS): > 100 µM

FC(F)(F)c1ccccc1C1SCC2=Nc3ccccc3CN21 (stereo unspecified)
TGI (HCT-15 colon): 27.1 µM
TGI (HL-60(TB) leukemia): 66.2 µM
TGI (HOP-62 NSCLC): 23.1 µM
TGI (MOLT-4 leukemia): > 100 µM
TGI (NCI-H23 lung): 26.6 µM
TGI (NCI-H460 lung): 31.8 µM
TGI (NCI/ADR-RES ovarian): 35.7 µM
TGI (SK-MEL-28 melanoma): 58.2 µM
TGI (TK-10 renal): 29.9 µM
TGI (U251 CNS): > 100 µM

COc1ccc(C(O)/C(=N/N)c2nc3ccc(Cl)cc3[nH]c2=O)cc1 (stereo unspecified)
TGI (HCT-15 colon): > 100 µM
TGI (HL-60(TB) leukemia): > 100 µM
TGI (HOP-62 NSCLC): > 100 µM
TGI (MOLT-4 leukemia): > 100 µM
TGI (NCI-H23 lung): > 100 µM
TGI (NCI-H460 lung): > 100 µM
TGI (NCI/ADR-RES ovarian): > 100 µM
TGI (SK-MEL-28 melanoma): > 100 µM
TGI (TK-10 renal): > 100 µM
TGI (U251 CNS): > 100 µM

CNC(=O)c1n[nH]n(C2CCCCC2)c1=S
TGI (HCT-15 colon): > 100 µM
TGI (HL-60(TB) leukemia): > 100 µM
TGI (HOP-62 NSCLC): > 100 µM
TGI (MOLT-4 leukemia): > 100 µM
TGI (NCI-H23 lung): > 100 µM
TGI (NCI-H460 lung): > 100 µM
TGI (NCI/ADR-RES ovarian): > 100 µM
TGI (SK-MEL-28 melanoma): > 100 µM
TGI (U251 CNS): > 100 µM

O=C/C(=C1/C=Cc2cc([N+](=O)[O-])ccc2S1)c1ccccc1
TGI (HCT-15 colon): > 100 µM
TGI (HL-60(TB) leukemia): > 100 µM
TGI (HOP-62 NSCLC): > 100 µM
TGI (MOLT-4 leukemia): > 100 µM
TGI (NCI-H23 lung): > 100 µM
TGI (NCI-H460 lung): > 100 µM
TGI (NCI/ADR-RES ovarian): > 100 µM
TGI (SK-MEL-28 melanoma): > 100 µM
TGI (TK-10 renal): > 100 µM
TGI (U251 CNS): > 100 µM

CC1=NN=C(C)C1N=Nc1ccc2nc(C)[nH]c2c1
TGI (HCT-15 colon): > 100 µM
TGI (HL-60(TB) leukemia): > 100 µM
TGI (HOP-62 NSCLC): > 100 µM
TGI (MOLT-4 leukemia): > 85.9 µM
TGI (NCI-H23 lung): > 100 µM
TGI (NCI-H460 lung): > 100 µM
TGI (NCI/ADR-RES ovarian): > 100 µM
TGI (SK-MEL-28 melanoma): > 100 µM
TGI (TK-10 renal): > 100 µM
TGI (U251 CNS): > 100 µM

CC(C)Oc1c(C2(c3ccccc3)SCCCS2)c(=O)c1=O
TGI (HCT-15 colon): > 100 µM
TGI (HL-60(TB) leukemia): > 100 µM
TGI (HOP-62 NSCLC): > 100 µM
TGI (MOLT-4 leukemia): > 100 µM
TGI (NCI-H23 lung): > 100 µM
TGI (NCI-H460 lung): > 100 µM
TGI (NCI/ADR-RES ovarian): > 100 µM
TGI (SK-MEL-28 melanoma): > 100 µM
TGI (TK-10 renal): > 100 µM
TGI (U251 CNS): > 100 µM

CC1=CC(=O)CC2(C)CCC(C(C)CC(=O)CC(C)C)CC12OO (stereo unspecified)
GI50 (HCT-15 colon): 16.5 µM and 35.3 µM
TGI (HCT-15 colon): 30.1 µM and > 100 µM
TGI (HL-60(TB) leukemia): 74.7 µM and 17.4 µM
TGI (MOLT-4 leukemia): 40.2 µM and 35.3 µM
TGI (NCI-H23 lung): 39.8 µM and 54.9 µM
GI50 (NCI-H460 lung): 11.6 µM and 31 µM
TGI (NCI-H460 lung): 25.1 µM and > 100 µM
TGI (NCI/ADR-RES ovarian): 56.6 µM and 81.2 µM
TGI (SK-MEL-28 melanoma): 28.5 µM and 32.5 µM
TGI (TK-10 renal): 32.8 µM and 34.1 µM
TGI (U251 CNS): 31.4 µM and 33.1 µM

O=C1CCN2c3ccccc3[C@H]3Cc4cccc(c4[C@@H]2C3)CCO1
TGI (HCT-15 colon): > 100 µM
TGI (HL-60(TB) leukemia): 48.8 µM
TGI (HOP-62 NSCLC): > 100 µM
TGI (MOLT-4 leukemia): 54.5 µM
TGI (NCI-H23 lung): > 100 µM
TGI (NCI-H460 lung): > 100 µM
TGI (NCI/ADR-RES ovarian): > 100 µM
TGI (SK-MEL-28 melanoma): > 100 µM
TGI (TK-10 renal): > 100 µM
TGI (U251 CNS): > 100 µM

Cc1ccc(S(=O)c2cccs2)cc1 (stereo unspecified)
TGI (HCT-15 colon): > 100 µM
TGI (HL-60(TB) leukemia): > 100 µM
TGI (HOP-62 NSCLC): > 100 µM
TGI (MOLT-4 leukemia): > 100 µM
TGI (NCI-H23 lung): > 100 µM
TGI (NCI-H460 lung): > 100 µM
TGI (NCI/ADR-RES ovarian): > 100 µM
TGI (SK-MEL-28 melanoma): > 100 µM
TGI (TK-10 renal): > 100 µM
TGI (U251 CNS): > 100 µM

CC1(C)CCN2C(=O)C34CCCC3CC21S4 (stereo unspecified)
TGI (HCT-15 colon): > 100 µM
TGI (HL-60(TB) leukemia): > 100 µM
TGI (HOP-62 NSCLC): > 100 µM
TGI (MOLT-4 leukemia): > 100 µM
TGI (NCI-H23 lung): > 100 µM
TGI (NCI/ADR-RES ovarian): > 100 µM
TGI (SK-MEL-28 melanoma): > 100 µM
TGI (TK-10 renal): > 100 µM
TGI (U251 CNS): > 100 µM

COc1ccc(/C=c2\c(=O)[nH]c3nc4ccccc4c(=O)n23)cc1
TGI (HCT-15 colon): > 100 µM
TGI (HL-60(TB) leukemia): > 100 µM
TGI (HOP-62 NSCLC): > 100 µM
TGI (MOLT-4 leukemia): > 100 µM
TGI (NCI-H23 lung): > 100 µM
TGI (NCI/ADR-RES ovarian): > 100 µM
TGI (SK-MEL-28 melanoma): > 100 µM
TGI (TK-10 renal): > 100 µM
TGI (U251 CNS): > 100 µM
